{
  "source": "paper PMC2635097",
  "about": "(Molecular pharmacology, 2008)",
  "key": {"[1]": {"molecular_target": "T1, rKv4.2 (Rattus norvegicus, UniProt Q63881)", "T1 sequence (Q63881 1-630)": "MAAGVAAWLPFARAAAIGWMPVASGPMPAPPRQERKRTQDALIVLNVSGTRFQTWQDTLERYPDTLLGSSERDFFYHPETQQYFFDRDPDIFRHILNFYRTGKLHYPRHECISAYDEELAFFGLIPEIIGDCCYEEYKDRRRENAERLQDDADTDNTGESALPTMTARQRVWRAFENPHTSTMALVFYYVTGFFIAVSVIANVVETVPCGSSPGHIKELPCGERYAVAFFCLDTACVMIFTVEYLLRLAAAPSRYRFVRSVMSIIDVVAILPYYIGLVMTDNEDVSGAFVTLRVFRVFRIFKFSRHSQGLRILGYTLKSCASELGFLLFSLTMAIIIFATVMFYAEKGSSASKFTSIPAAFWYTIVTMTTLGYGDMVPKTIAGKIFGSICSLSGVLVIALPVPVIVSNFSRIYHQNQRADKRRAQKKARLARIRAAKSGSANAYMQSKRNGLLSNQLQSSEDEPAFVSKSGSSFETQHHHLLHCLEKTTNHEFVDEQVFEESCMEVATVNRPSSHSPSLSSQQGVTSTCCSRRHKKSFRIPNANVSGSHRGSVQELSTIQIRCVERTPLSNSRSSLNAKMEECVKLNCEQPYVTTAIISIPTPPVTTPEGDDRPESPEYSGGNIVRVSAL", "assay": "Selectivity patch-clamp, Kv4.2 currents", "format": "cell-based", "settings": "25 μM"}, "[2]": {"test_system": "Jurkat E61 and MEL cells", "assay": "Cytotoxicity assay", "format": "cell-based", "settings": "concentrations up to 100 μM; 48 h"}, "[3]": {"test_system": "wt and KCa3.1−/− mice", "assay": "Telemetric blood pressure in normotensive mice", "format": "in vivo, mouse", "settings": "for MAP over 24 h: mean ± SEM; for lowering of mean arterial pressure (MAP): over 24 h"}, "[4]": {"assay": "Pharmacokinetics in rats", "format": "in vivo", "settings": "rat; for peak total plasma concentration: 2 h"}, "[5]": {"molecular_target": "T2, K2P2.1 (TREK-1) (Mus musculus, UniProt P97438)", "T2 sequence (P97438 1-426)": "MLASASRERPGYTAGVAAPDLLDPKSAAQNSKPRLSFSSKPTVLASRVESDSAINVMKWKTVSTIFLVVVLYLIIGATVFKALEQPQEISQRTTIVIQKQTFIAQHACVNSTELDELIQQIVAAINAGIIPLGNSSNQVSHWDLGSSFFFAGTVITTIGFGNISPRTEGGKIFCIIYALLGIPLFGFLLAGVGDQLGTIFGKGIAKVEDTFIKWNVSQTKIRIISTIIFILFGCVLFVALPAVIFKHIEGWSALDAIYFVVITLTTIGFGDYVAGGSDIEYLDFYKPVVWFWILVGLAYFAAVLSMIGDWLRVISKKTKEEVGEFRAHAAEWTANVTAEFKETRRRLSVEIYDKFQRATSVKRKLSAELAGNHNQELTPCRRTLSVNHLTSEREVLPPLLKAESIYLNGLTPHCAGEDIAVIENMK", "assay": "Selectivity patch-clamp, endothelial cell TREK-1 currents", "format": "cell-based", "settings": "25 μM"}, "[6]": {"test_system": "murine carotid artery", "assay": "Pressure myography, EDHF-type dilation of carotid artery", "parameters": "species or system mouse"}, "[7]": {"assay": "logP", "format": "physicochemical"}, "[8]": {"molecular_target": "hKv1.5 (Homo sapiens, UniProt P22460)", "sequence (P22460 whole entry)": "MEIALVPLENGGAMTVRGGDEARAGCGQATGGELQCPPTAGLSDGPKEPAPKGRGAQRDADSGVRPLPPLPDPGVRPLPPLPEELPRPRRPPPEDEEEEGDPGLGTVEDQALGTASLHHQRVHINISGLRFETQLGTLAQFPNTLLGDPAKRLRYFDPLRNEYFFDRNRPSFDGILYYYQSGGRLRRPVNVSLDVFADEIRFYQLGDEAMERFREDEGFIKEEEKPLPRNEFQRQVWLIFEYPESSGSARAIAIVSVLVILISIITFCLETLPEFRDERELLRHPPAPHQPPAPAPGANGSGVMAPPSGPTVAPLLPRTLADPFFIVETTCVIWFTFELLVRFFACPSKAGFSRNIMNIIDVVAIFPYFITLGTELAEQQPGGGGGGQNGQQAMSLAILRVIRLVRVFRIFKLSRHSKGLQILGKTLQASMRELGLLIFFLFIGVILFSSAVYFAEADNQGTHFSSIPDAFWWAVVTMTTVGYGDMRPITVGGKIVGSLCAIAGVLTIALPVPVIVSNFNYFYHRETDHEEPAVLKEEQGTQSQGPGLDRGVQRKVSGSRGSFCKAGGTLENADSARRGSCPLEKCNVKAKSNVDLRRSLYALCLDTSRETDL", "assay": "Selectivity patch-clamp, Kv1.5 currents", "format": "cell-based", "settings": "25 μM"}, "[9]": {"molecular_target": "Cav1.2 (Oryctolagus cuniculus, UniProt P15381)", "assay": "Selectivity patch-clamp, Cav1.2 currents", "format": "cell-based"}, "[10]": {"molecular_target": "glutamate site of NMDA receptors (Rattus norvegicus, UniProt Q00959)", "sequence (Q00959 23-1464, other chains not shown)": "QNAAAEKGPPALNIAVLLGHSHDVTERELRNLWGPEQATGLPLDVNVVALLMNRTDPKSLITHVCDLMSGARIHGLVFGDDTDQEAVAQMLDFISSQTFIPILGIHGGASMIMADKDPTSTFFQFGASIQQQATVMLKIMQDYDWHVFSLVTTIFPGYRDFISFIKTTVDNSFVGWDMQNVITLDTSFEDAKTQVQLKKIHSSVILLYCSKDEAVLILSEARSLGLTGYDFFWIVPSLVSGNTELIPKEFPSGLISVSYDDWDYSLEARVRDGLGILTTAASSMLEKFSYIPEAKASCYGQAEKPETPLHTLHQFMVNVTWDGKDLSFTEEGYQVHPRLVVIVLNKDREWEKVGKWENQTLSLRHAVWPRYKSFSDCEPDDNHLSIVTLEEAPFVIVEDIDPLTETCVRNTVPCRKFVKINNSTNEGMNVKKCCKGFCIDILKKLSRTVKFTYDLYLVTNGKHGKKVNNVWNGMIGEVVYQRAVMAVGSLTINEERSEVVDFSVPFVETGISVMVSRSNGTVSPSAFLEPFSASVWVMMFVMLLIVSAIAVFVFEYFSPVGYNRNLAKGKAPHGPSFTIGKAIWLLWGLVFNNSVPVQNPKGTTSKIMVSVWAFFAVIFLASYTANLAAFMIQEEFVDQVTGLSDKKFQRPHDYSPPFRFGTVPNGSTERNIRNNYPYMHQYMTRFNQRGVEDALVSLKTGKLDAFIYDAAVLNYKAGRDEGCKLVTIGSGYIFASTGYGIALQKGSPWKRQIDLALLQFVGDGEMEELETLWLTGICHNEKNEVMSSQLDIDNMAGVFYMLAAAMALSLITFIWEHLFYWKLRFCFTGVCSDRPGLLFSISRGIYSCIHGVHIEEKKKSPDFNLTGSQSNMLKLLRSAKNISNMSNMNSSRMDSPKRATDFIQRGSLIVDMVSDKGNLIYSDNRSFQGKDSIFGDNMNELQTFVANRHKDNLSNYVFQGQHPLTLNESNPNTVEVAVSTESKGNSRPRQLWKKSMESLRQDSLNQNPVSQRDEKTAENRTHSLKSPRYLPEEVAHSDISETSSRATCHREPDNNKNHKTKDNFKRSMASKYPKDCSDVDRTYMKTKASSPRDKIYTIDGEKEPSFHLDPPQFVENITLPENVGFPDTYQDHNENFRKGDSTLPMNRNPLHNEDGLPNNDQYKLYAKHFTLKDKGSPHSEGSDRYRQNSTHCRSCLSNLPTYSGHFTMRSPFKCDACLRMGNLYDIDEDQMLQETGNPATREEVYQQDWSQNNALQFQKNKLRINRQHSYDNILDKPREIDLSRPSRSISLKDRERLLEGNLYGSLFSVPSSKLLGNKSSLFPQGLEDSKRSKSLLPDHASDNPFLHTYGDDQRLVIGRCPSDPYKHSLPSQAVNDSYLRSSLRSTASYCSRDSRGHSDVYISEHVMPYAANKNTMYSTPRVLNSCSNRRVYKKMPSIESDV", "assay": "NMDA receptor radioligand binding assay"}, "[11]": {"test_system": "mice", "assay": "Maximal electroshock", "format": "in vivo, mouse", "settings": "100 mg/kg i.p., 15 min, 30 min and 1 hour"}, "[12]": {"molecular_target": "hKCa1.1 (Homo sapiens, UniProt Q12791)", "sequence (Q12791 whole entry)": "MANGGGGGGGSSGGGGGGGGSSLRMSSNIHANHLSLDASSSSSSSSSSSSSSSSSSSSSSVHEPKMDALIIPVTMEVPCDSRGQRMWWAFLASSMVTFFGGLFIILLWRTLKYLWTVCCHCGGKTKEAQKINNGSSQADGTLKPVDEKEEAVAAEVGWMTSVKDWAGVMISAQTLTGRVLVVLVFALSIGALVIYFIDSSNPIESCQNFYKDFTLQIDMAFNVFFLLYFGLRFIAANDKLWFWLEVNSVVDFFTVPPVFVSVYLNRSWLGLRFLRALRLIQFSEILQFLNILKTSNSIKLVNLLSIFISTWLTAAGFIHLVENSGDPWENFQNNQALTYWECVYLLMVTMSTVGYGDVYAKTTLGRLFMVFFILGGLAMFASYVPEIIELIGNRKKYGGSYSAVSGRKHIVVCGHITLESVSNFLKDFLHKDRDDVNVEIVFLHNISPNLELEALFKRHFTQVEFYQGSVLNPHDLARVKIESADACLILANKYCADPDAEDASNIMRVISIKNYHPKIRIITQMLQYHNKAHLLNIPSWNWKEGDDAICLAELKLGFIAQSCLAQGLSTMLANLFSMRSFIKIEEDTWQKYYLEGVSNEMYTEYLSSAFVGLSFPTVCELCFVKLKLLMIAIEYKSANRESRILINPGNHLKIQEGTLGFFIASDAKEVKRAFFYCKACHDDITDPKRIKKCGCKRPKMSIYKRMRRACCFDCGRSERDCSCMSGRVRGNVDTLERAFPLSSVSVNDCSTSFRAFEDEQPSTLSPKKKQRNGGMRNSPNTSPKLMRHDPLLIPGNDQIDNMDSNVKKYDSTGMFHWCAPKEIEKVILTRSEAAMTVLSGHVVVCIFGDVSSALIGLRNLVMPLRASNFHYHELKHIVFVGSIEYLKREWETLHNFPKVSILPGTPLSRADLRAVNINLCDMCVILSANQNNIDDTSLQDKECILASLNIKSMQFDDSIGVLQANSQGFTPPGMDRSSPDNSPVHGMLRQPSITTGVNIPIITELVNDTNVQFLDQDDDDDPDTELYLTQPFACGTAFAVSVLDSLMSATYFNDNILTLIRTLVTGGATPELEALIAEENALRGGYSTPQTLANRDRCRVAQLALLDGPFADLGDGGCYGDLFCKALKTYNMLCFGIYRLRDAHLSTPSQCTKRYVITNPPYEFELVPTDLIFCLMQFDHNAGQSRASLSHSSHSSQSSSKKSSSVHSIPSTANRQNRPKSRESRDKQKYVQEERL", "assay": "Selectivity patch-clamp, KCa1.1 currents", "format": "cell-based", "settings": "25 μM; 1 μM free Ca2+"}, "[13]": {"assay": "Plasma protein binding by ultrafiltration", "format": "in vitro ADME, rat"}, "[14]": {"molecular_target": "Kv11.1 (HERG) (Homo sapiens, UniProt Q12809)", "sequence (Q12809 whole entry)": "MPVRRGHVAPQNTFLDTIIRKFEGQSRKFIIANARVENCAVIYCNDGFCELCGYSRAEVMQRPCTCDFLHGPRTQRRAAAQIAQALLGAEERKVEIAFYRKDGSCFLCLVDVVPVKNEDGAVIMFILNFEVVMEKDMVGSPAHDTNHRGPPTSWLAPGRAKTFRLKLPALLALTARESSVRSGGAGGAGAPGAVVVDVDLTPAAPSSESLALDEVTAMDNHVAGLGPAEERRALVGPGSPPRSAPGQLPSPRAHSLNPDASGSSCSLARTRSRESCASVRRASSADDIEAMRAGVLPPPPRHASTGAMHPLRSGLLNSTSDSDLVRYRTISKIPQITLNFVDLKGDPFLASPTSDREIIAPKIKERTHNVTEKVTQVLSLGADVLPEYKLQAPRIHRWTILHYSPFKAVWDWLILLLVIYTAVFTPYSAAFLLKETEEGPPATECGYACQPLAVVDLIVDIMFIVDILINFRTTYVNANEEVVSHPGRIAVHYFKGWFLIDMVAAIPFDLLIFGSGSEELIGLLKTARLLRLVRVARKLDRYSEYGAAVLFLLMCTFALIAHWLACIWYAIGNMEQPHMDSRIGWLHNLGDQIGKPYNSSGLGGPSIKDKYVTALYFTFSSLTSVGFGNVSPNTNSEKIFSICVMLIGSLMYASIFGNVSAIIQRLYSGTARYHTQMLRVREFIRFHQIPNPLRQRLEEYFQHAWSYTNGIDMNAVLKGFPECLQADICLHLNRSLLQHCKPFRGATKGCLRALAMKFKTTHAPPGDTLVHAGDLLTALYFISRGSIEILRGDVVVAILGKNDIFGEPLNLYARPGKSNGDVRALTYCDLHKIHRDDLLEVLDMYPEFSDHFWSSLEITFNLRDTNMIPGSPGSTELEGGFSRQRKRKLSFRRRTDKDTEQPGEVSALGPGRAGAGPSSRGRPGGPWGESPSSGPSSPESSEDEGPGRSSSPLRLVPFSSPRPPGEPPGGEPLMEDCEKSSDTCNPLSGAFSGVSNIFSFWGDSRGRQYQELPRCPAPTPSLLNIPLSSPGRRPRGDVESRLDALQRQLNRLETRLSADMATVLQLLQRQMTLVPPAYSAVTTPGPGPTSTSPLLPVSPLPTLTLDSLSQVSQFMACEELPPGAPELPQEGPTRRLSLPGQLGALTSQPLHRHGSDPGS"}, "[15]": {"molecular_target": "mKv1.1 (Mus musculus, UniProt P16388)", "sequence (P16388 whole entry)": "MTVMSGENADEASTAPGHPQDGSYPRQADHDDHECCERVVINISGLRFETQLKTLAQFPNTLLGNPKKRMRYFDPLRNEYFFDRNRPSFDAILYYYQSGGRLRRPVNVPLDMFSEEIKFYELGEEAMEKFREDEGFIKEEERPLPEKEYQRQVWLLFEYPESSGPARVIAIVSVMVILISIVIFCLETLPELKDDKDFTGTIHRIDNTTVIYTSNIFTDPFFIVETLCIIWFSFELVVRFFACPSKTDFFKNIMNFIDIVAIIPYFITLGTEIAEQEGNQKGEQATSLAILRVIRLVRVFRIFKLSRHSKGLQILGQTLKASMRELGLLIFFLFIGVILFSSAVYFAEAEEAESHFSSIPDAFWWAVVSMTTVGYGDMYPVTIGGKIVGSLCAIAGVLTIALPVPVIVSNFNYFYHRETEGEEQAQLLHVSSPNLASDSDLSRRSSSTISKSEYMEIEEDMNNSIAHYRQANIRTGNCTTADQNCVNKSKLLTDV", "assay": "Selectivity patch-clamp, Kv1.1 currents", "format": "cell-based", "settings": "25 μM"}, "[16]": {"molecular_target": "mKv1.3 (Mus musculus, UniProt P16390)", "assay": "Selectivity patch-clamp, Kv1.3 currents", "format": "cell-based"}, "[17]": {"test_system": "mice", "format": "in vivo, mouse", "settings": "100 mg/kg i.p., 15 min, 30 min and 1 hour"}, "[18]": {"test_system": "wt mice infused with Ang-II", "assay": "Telemetric blood pressure in angiotensin-II-induced hypertension", "format": "in vivo, mouse", "settings": "30 mg/kg i.p."}, "[19]": {"molecular_target": "hNav1.4 (Homo sapiens, UniProt P35499)", "assay": "Selectivity patch-clamp, Nav1.4 currents", "format": "cell-based", "settings": "25 μM"}, "[20]": {"settings": "male, Sprague-Dawley, plasma, iv, 10 mg/kg"}},
  "note": "Where “and” joins values, the source holds several entries; their conditions need not be identical. Equal entries are not always repeated.",
  "data": [
    {"smiles": "Nc1nc2c(ccc3ccccc32)s1", "note": "[SKA-31, naphtho[1,2-d]thiazol-2-ylamine]", "values": [
      {"measurement": "Kv4.2 block at 25 μM", "setting": "[1]", "result": "No effect at 25 μM"},
      {"measurement": "cytotoxicity", "setting": "[2]", "result": "not cytotoxic"},
      {"measurement": "MAP over 24 h", "setting": "[3]; KCa3.1−/− mice, 10 mg/kg i.p.", "result": "104.3 ± 1.5", "unit": "mmHg"},
      {"measurement": "MAP over 24 h", "setting": "[3]; KCa3.1−/− mice, 30 mg/kg i.p.", "result": "102.9 ± 0.6", "unit": "mmHg"},
      {"measurement": "effect on mean arterial pressure (MAP)", "setting": "[3]; KCa3.1−/− mice, 10 and 30 mg/kg i.p.", "result": "no blood pressure lowering effects"},
      {"measurement": "effect on heart rate", "setting": "[3]; any of the groups", "result": "did not alter heart rate"},
      {"measurement": "effect on mean arterial pressure (MAP)", "setting": "[3]; normotensive wt mice, 1 mg/kg i.p.", "result": "ineffective"},
      {"measurement": "lowering of mean arterial pressure (MAP)", "setting": "[3]; normotensive wt mice, 10 mg/kg i.p.", "result": 4, "unit": "mmHg"},
      {"measurement": "lowering of mean arterial pressure (MAP)", "setting": "[3]; normotensive wt mice, 30 mg/kg i.p.", "result": 6, "unit": "mmHg"},
      {"measurement": "MAP over 24 h", "setting": "[3]; wt mice, 1 mg/kg i.p.", "result": "99.0 ± 2.0", "unit": "mmHg"},
      {"measurement": "MAP over 24 h", "setting": "[3]; wt mice, 10 mg/kg i.p.", "result": "95.8 ± 1.3", "unit": "mmHg"},
      {"measurement": "MAP over 24 h", "setting": "[3]; wt mice, 30 mg/kg i.p.", "result": "94.1 ± 1.3", "unit": "mmHg"},
      {"measurement": "Tmax", "setting": "[4]; male, Sprague-Dawley, plasma, ip, 30 mg/kg", "result": 2, "unit": "h"},
      {"measurement": "concentration at 1 h", "setting": "[4]; [20]", "result": 5000, "unit": "nM"},
      {"measurement": "concentration at 24 h", "setting": "[4]; [20]", "result": 2500, "unit": "nM"},
      {"measurement": "concentration at 48 h", "setting": "[4]; [20]", "result": 2000, "unit": "nM"},
      {"measurement": "concentration at 80 h", "setting": "[4]; [20]", "result": 2000, "unit": "nM"},
      {"measurement": "peak total plasma concentration", "setting": "[4]; i.p. 10 mg/kg", "result": 25, "unit": "µM"},
      {"measurement": "plasma concentrations higher than tissue concentrations", "setting": "[4]; i.p. 10 mg/kg, 2 h (plasma peak)", "result": "4–8 fold"},
      {"measurement": "peak total plasma concentration", "setting": "[4]; i.p. 30 mg/kg", "result": 37, "unit": "µM"},
      {"measurement": "total plasma concentration, peak at 3 min", "setting": "[4]; i.v. 10 mg/kg, 3 min", "result": 30, "unit": "µM"},
      {"measurement": "K2P2.1 (TREK-1) effect at 25 μM", "setting": "[5]", "result": "No effect at 25 μM"},
      {"measurement": "effect on carotid artery diameter in the absence of acetylcholine", "setting": "[6]; 0.01 to 1 μM", "result": "did not dilate or contract"},
      {"measurement": "potentiation of residual KCa2.3-mediated EDHF-type response", "setting": "[6]; carotid arteries of KCa3.1−/− mice, 0.1 to 1 μM", "result": "did not potentiate"},
      {"measurement": "increase in EDHF-type dilation at 1 μM", "setting": "[6]; wt carotid artery, 100 nM acetylcholine, 1 μM", "result": "two- to three-fold increase in dilation"},
      {"measurement": "logP", "setting": "[7]", "result": 2.2},
      {"measurement": "Kv1.5 block at 25 μM", "setting": "[8]", "result": "20 ± 5", "unit": "% block at 25 μM"},
      {"measurement": "Cav1.2 block at 25 μM", "setting": "[9]", "result": "No effect at 25 μM"},
      {"measurement": "effect in NMDA receptor binding assay at 25 μM", "setting": "[10]", "result": "no effect"},
      {"measurement": "protection from seizures, maximal electroshock (MES) model", "setting": "[11]", "result": "effectively protect mice from seizures"},
      {"measurement": "effect on KCa1.1 current at 25 μM", "setting": "[12]", "result": "No effect at 25 μM"},
      {"measurement": "unbound (free) fraction", "setting": "[13]; rat plasma spiked with 10 μM", "result": "61 ± 1.7% and 61%"},
      {"measurement": "fraction unbound at 15 min, 10 μM", "setting": "[13]; rat, plasma", "result": 0.61},
      {"measurement": "Kv11.1 (HERG) block at 25 μM", "setting": "[14]", "result": "No effect at 25 μM"},
      {"measurement": "Kv1.1 block at 25 μM", "setting": "[15]", "result": "No effect at 25 μM"},
      {"measurement": "Kv1.3 block at 25 μM", "setting": "[16]", "result": "20 ± 5", "unit": "% block at 25 μM"},
      {"measurement": "protection from seizures, 6 Hz minimal electroshock model", "setting": "[17]", "result": "effectively protect mice from seizures"},
      {"measurement": "MAP", "setting": "[18]; Ang-II hypertensive wt mice, mean ± SEM", "result": "120 ± 4", "unit": "mmHg"},
      {"measurement": "lowering of mean arterial pressure (MAP)", "setting": "[18]; angiotensin-II-induced hypertension, wt mice", "result": 12, "unit": "mmHg"},
      {"measurement": "Nav1.4 block at 25 μM", "setting": "[19]", "result": "20 ± 5", "unit": "% block at 25 μM"}
    ]}
  ]
}
